Results on 47 compounds are retold here after ChEMBL document CHEMBL3301464, “MMV Malaria Box anti-babesial screening”.

Bounds are passed on as bounds.

One may read the IC50 as the point on the concentration scale where inhibition reaches its midpoint. Read a high IC50 as a need for much substance.

Experiment [1] can be described thus: (§1) MMV: Anti-babesial activity assay. Parasite pRBCs at 1% parasitemia were cultivated in 100 ul with 96-well plates at 2.5% and 5% hematocrits. The parasites were cultivated in triplicate for 4 days without replacement of the medium for each concentration of the compound. It is filed as functional, Babesia equi.
Experiment [2] in a line: as §1. It is filed as functional, Babesia bovis.
Experiment [3] can be described thus: as §1. The class given is functional, Babesia caballi.
The nature of experiment [4]: as §1. The class given is functional, Babesia bigemina.

On to `CCOc1ccc(Nc2ccnc3cc(Cl)ccc23)cc1`, for which the IC50 in experiment [1] is 15.9 µM; in experiment [2] it was 0.056 µM; in experiment [3], 10 µM; in experiment [4] it was 0.068 µM.
As to `Cc1ccc(CN2CCC(C(=O)Nc3ccc(-c4cc5ccccc5[nH]4)cc3)CC2)o1`, the IC50 in experiment [1] worked out at 0.33 µM; in experiment [2], 5.5 µM; in experiment [3], 4.37 µM; in experiment [4], 3.61 µM.
The like results for `CCCCc1ccc(NS(=O)(=O)c2cc3c4c(c2)CCN4C(=O)CC3)cc1` were, in that order, 0.57 µM, 25 µM, 0.07 µM and 12.5 µM.
For `COc1cc(C(=O)ON=C(N)Cc2cccc3ccccc23)cc(OC)c1OC`, in that order: 10.1 µM, 13.3 µM, 5.3 µM and 12.5 µM.
As to `CCOC(=O)c1c[nH]c2c(CC)cccc2c1=O`, the IC50 in experiment [1] stood at 13.4 µM; in experiment [2], 9.61 µM; in experiment [3] it was 14.6 µM; in experiment [4], 5.09 µM.
For `Nc1nc(Nc2cccc(F)c2)nc2ccccc12`, in that order: 0.79 µM, 0.73 µM, 6.08 µM and 7.65 µM.
The like results for `CCN1CCN(c2cc(C)c3cc(NC(=O)c4ccc(OC)c(OC)c4)ccc3n2)CC1` were, in that order, 0.33 µM, 6.69 µM, 5.93 µM and 7.92 µM.
In the case of `COc1ccc(C(C)=O)cc1N1C(=O)C2C(C1=O)C1(c3ccccc3)C(=O)C2(c2ccccc2)C(c2ccc(C)cc2)=C1c1ccc(C)cc1` (stereo not drawn), the IC50 was 16.9 µM in experiment [1], 17.5 µM in experiment [2], 8.46 µM in experiment [3] and 15.5 µM in experiment [4].
The like results for `COc1cccc(C(=O)NC(c2ccc(C)cc2)c2cc(Cl)c3cccnc3c2O)c1` (stereo not drawn) were, in that order, 3.73 µM, 4.68 µM, 16.1 µM and 1.4 µM.
For `CSC1=NC(=Nc2c(C)cccc2C)C2(CCC(C(C)(C)C)CC2)N1c1ccc(Cl)cc1` (stereo not drawn), the IC50 came out at 11.5 µM in experiment [1], 18.4 µM in experiment [2], 15 µM in experiment [3] and 17.1 µM in experiment [4].
For `Oc1c(CN2CCN(c3ccccc3F)CC2)cc(Br)c2cccnc12`, in that order: 12.8 µM, 3.32 µM, 14.7 µM and 4.6 µM.
The like results for `O=C(Nc1ccc(CN2CCOCC2)cc1)c1ccc(-c2ccc(Br)cc2)o1` were, in that order, 6.8 µM, 7.67 µM, 5.64 µM and 11.5 µM.
The like results for `COc1ccccc1CNC(=O)C1c2ccccc2C(=O)N(CC(C)C)C1c1cccs1` (stereo not drawn) were, in that order, 10 µM, 8.25 µM, 16.8 µM and 10 µM.
Turning to `CC(C)=CCN1CCC(C(=O)Nc2ccc(-c3nc4ccccc4[nH]3)cc2)CC1`, the IC50 in experiment [1] came to 0.051 µM; in experiment [2] it was 5.5 µM; in experiment [3] it was 17 µM; in experiment [4], 1.04 µM.
For `CCN(CC)c1ccc(NC(=O)c2cccs2)cc1`, in that order: 13.4 µM, 24.1 µM, 10 µM and 17.5 µM.
Regarding `O=C(Nc1ccc(-c2nc3ccccc3[nH]2)cc1)c1ccc(Cl)c(Cl)c1`, the IC50 in experiment [1] was 6.24 µM; in experiment [2], 18.5 µM; in experiment [3], 3.86 µM; in experiment [4], 4.13 µM.
For `Cc1ccc2cc3c(N)c4c(C)ccc(C)c4nc3nc2c1`, in that order: 4.52 µM, 2.63 µM, 7.26 µM and 4.27 µM.
As for `Nc1ccn([C@@H]2O[C@H](CO)[C@@H](O)[C@H]2O)c(=O)n1` [CYTIDINE], the IC50 in experiment [1] was 14.1 µM; in experiment [2] it was 7.31 µM; in experiment [3] it was 4.27 µM; in experiment [4], 19.1 µM.
For the compound `COc1ccc2sc(N(Cc3cccnc3)C(=O)c3ccc(C#N)cc3)nc2c1`, the concentration for half-maximal inhibition (IC50) in experiment [1] is 14.6 µM; in experiment [2], 13.7 µM; in experiment [3], 6.72 µM; in experiment [4] it was 11.9 µM.
The like results for `CCOC(=O)C1=C(C)N=c2sc(=Cc3ccccc3O)c(=O)n2C1c1ccc(OC)c2ccccc12` (stereo not drawn) were, in that order, 10 µM, 21.7 µM, 8.43 µM and 16 µM.
Consider `N#Cc1nc(Cc2cccc3ccccc23)oc1N1CCN(C(c2ccccc2)c2ccccc2)CC1`, for which the IC50 in experiment [1] was determined as 12 µM; in experiment [2] it was 16.1 µM; in experiment [3], 5.09 µM; in experiment [4] it was 19.8 µM.
For `CCCCCCOC(=O)C1=C(C)NC(=O)NC1c1ccccc1F` (stereo not drawn), in that order: 15.2 µM, above 25 µM, 4.9 µM and 14.8 µM.
`CCOc1c(Cl)cc(CNCC(O)c2ccccc2)cc1OC` (stereo not drawn): the IC50 in experiment [1] was 10 µM; in experiment [2], 6.8 µM; in experiment [3] it was 4.77 µM; in experiment [4], 18.9 µM.
The like results for `CCOc1cc(Br)c(C(C)NC(=O)c2cccc(OC)c2)cc1OCC` (stereo not drawn) were, in that order, 12.4 µM, 10 µM, 13.3 µM and 25 µM.
As for `O=C(Nc1cccc(C(F)(F)F)c1)c1cc(Cl)ccc1O`, the half-maximal inhibitory concentration (IC50) in experiment [1] was determined as 5.1 µM; in experiment [2] it was 0.82 µM; in experiment [3], 5.21 µM; in experiment [4], 3.71 µM.
For `O=C(Nc1ccc(F)c(Cl)c1)Nc1ccc(Cl)c(Cl)c1`, in that order: 3.39 µM, 3.53 µM, 3.81 µM and 3.39 µM.
The like results for `COc1ccc(C2N(C)c3ccccc3N2C)cc1` were, in that order, 7.89 µM, 4.77 µM, 4.6 µM and 2.16 µM.
In the case of `COc1cc(C(=O)Nc2ccc(-c3nc4ccccc4[nH]3)cc2)cc(OC)c1OC`, the IC50 in experiment [1] was found to be 15.9 µM; in experiment [2] it was 13.3 µM; in experiment [3] it was 11 µM; in experiment [4] it was 1 µM.
For `O=C1c2ccccc2-c2nnc(-c3ccc(Br)cc3)cc21`, in that order: 10.1 µM, 0.86 µM, 18.1 µM and 0.77 µM.
As for `CN(C)c1ccc(-c2nc3cc(N)ccc3[nH]2)cc1`, the 50% inhibitory concentration (IC50) in experiment [1] was 3.61 µM; in experiment [2], 0.083 µM; in experiment [3], 7.59 µM; in experiment [4], 1.04 µM.
For `COc1ccccc1CNC(=O)CCn1c(=O)[nH]c2ccccc2c1=O`, in that order: 14.2 µM, 19.5 µM, 4.38 µM and 3.9 µM.
For `CCOc1ccc2nc(C)cc(Nc3ccc(N(C)C)cc3)c2c1`, in that order: 15.5 µM, 0.056 µM, 6.08 µM and 0.065 µM.
As for `COc1ccc(C2NCCc3c2[nH]c2ccccc32)cc1CN1CCN(c2ccc(F)cc2)CC1` (stereo not drawn), the IC50 in experiment [1] was 10.1 µM; in experiment [2], 3.71 µM; in experiment [3], 10 µM; in experiment [4], 16.5 µM.
As to `COCCn1c(C)nc2ccccc2c1=O`, the IC50 was 12.9 µM in experiment [1], 14.3 µM in experiment [2], 13.9 µM in experiment [3] and 14.7 µM in experiment [4].
The like results for `CCOc1c(Cl)cc(CNC(C)C(O)c2ccccc2)cc1OC` (stereo not drawn) were, in that order, 6.69 µM, 1.89 µM, 12 µM and 7.31 µM.
For `COc1ccc(C(=O)C2CC2c2ccc(Cl)cc2)cc1` (stereo not drawn), in that order: 16.1 µM, 5.97 µM, 14.6 µM and 6.72 µM.
The like results for `COc1nc(Nc2ccc(C(C)C)cc2)nc(OC)n1` were, in that order, 12.3 µM, 1.03 µM, 0.076 µM and 10.1 µM.
As to `CC1CC(C)CN(C(=O)c2ccc(Cl)cc2Cl)C1` (stereo not drawn), the IC50 in experiment [1] worked out at 19.4 µM; in experiment [2] it was 6.8 µM; in experiment [3] it was 3.9 µM; in experiment [4], 14.7 µM.
As for `O=C(NCc1ccco1)C1CCN(S(=O)(=O)c2ccc(Br)cc2)CC1`, the IC50 in experiment [1] is 14.3 µM; in experiment [2], 17 µM; in experiment [3], above 25 µM; in experiment [4] it was above 25 µM.
As for `N=c1n(CCN2CCCCC2)c2ccccc2n1CC(=O)c1ccc(Cl)c(Cl)c1`, the half-maximal inhibitory concentration (IC50) in experiment [1] was found to be 15.9 µM; in experiment [2], 0.077 µM; in experiment [3] it was 3.73 µM; in experiment [4] it was 0.066 µM.
Regarding `COc1ccccc1CNC(=O)CCn1c(=O)[nH]c2ccsc2c1=O`, the IC50 in experiment [1] turned out to be 15.2 µM; in experiment [2], 8.93 µM; in experiment [3], 2.05 µM; in experiment [4], 0.68 µM.
For `COc1ccc(-c2nc(N3CCN(C(=O)C4CCCCC4)CC3)c3c4c(sc3n2)CCCC4)cc1`, in that order: 8.36 µM, 1.07 µM, 11.9 µM and 1 µM.
For `Cc1cccc(-n2ncc3c(O)nc(-n4nc(C)cc4NC(=O)c4cc5ccccc5o4)nc32)c1`, the IC50 in experiment [1] turned out to be 0.47 µM; in experiment [2], 4.48 µM; in experiment [3], 0.073 µM; in experiment [4], 0.41 µM.
The like results for `CCOc1ccc(CCNC(=O)c2cccs2)cc1OCC` were, in that order, 13.9 µM, 25 µM, 15.3 µM and above 25 µM.
For the compound `COc1ccc(-c2nonc2NC(=O)c2cccc(Cl)c2)cc1OC`, the IC50 is 16.6 µM in experiment [1], 10 µM in experiment [2], 11.5 µM in experiment [3] and 8.2 µM in experiment [4].
For `Cc1ccc(F)cc1NC(=O)c1cc(Cl)ccc1Nc1ccccc1`, in that order: above 25 µM, 18.6 µM, 2.56 µM and 10.2 µM.
For `COc1ccc2nc(C)cc(Nc3cccc(O)c3)c2c1`, in that order: 4.19 µM, 13.4 µM, above 25 µM and 25 µM.
